In patent US10669272B2, “Substituted naphthyridinone compounds useful as T cell activators” (BRISTOL-MYERS SQUIBB COMPANY, priority 2018, dated 2020):
pEC50, pIC50: −log10 of the molar value. Where two headings read alike, the source gives them in different places.

Key:
human DGKα = target: T1, human DGKα (Homo sapiens, UniProt P23743); assay: DGKα LIPGLO assay (extruded liposome substrate), in vitro DGK inhibition; assay type: biochemical; conditions: liposome (LIPGLO) assay; read-out: DGKa LIPGLO IC50
T1 construct: TVMV protease cleavage site (C); Hexa-His (C); made in house; host or cells: Sf9 insect cells (baculovirus, Bac-to-Bac)
T1 sequence (P23743 with tags, fused parts or gaps): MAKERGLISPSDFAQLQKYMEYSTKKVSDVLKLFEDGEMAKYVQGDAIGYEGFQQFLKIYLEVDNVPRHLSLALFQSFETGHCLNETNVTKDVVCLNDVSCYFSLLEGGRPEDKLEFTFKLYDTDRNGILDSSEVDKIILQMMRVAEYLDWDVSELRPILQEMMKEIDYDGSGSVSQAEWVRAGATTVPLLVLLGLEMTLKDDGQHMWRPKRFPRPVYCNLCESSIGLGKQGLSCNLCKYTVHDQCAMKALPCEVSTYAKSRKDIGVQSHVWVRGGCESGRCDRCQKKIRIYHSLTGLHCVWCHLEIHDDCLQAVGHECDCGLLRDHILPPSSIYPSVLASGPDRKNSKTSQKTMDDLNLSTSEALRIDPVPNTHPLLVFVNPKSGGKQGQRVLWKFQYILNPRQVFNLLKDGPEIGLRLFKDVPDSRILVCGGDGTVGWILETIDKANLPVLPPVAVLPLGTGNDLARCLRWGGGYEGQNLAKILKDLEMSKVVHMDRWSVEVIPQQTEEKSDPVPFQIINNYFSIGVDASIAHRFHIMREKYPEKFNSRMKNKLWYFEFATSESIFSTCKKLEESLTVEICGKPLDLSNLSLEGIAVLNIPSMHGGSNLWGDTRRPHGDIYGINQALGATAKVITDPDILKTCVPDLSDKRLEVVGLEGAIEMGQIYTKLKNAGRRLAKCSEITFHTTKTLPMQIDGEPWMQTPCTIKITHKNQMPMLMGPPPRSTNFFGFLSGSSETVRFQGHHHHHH

human DGKζ = target: T2, human DGKζ (Homo sapiens, UniProt Q13574); assay: DGKζ LIPGLO assay (extruded liposome substrate), in vitro DGK inhibition; assay type: biochemical; conditions: liposome (LIPGLO) assay; read-out: DGKz LIPGLO IC50
T2 construct: TVMV protease cleavage site (C); Hexa-His (C); made in house; host or cells: Sf9 insect cells (baculovirus, Bac-to-Bac)
T2 sequence (Q13574 with tags, fused parts or gaps isoform Q13574-4): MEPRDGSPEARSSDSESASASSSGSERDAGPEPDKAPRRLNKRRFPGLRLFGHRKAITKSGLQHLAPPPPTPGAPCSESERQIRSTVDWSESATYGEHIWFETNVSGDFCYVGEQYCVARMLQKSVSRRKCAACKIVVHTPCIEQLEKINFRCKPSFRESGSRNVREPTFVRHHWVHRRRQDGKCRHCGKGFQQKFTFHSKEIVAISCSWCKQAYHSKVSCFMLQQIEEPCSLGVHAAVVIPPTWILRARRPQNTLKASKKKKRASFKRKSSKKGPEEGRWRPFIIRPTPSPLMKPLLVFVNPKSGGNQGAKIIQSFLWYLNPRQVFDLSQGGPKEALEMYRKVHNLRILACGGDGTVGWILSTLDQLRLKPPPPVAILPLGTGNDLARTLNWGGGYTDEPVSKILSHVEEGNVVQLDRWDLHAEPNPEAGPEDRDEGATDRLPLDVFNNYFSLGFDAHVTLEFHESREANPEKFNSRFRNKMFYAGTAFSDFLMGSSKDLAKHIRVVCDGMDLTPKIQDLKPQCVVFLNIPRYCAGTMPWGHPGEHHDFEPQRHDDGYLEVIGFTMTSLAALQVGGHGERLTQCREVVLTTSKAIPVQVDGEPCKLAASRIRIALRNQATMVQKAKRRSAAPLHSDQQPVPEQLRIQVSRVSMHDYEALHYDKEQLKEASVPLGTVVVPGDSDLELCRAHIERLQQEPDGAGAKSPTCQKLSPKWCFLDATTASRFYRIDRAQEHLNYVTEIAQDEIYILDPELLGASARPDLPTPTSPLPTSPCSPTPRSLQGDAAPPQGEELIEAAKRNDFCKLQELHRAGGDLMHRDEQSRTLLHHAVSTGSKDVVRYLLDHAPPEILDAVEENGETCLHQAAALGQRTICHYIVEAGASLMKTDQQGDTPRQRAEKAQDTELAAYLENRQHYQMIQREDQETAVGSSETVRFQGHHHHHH

[1] = system: OT-1 CD8+ T cells with SIINFEKL-loaded MC38 tumor cells; assay: Murine cytotoxic T lymphocyte assay (IFN-γ, OT-1 CTL with MC38 tumor cells); assay type: cell-based, mouse; conditions: read-out: msCTL INFg IC50
Source text: 5. Murine Cytotoxic T Lymphocyte Assay
An antigen-specific cytolytic T-cell (CTL) assay was developed to evaluate functionally the ability of DGKα and DGKζ inhibitors to enhance effector T cell mediated tumor cell killing activity. CD8+ T-cells isolated from the OT-1 transgenic mouse recognize antigen presenting cells, MC38, that present the ovalbumin derived peptide […]. Recognition of the cognate antigen initiates the cytolytic activity of the OT-1 antigen-specific CD8+ T cells.
Functional CTL cells were generated as follows: OT-1 splenocytes from 8-12 week old mice were isolated and expanded in the presence of the […] peptide at 1 μg/mL and mIL2 at 10 U/mL. After three days, fresh media with […] was added. On day 5 of the expansion, the CD8+ T cells were isolated and ready for use. Activated CTL cells may be stored frozen for 6 months. Separately, one million MC38 tumor cells were pulsed with 1 μg/mL of […]-OVA peptide for 3 hours at 37° C. The cells were washed (3×) with fresh media to remove excess peptide. Finally, CTL cells that were pretreated with DGK inhibitors for 1 hour in a 96-well U bottom plate were combined with the antigen loaded MC38 tumor cells at a 1:10 ratio. The cells were then spun at 700 rpm for 5 min and placed in an incubator overnight at 37° C. After 24 hours, the supernatant was collected for analysis of IFN-γ cytokine levels by AlphaLisa purchased from Perkin Elmer.

naïve human CD8 T cells = assay: Human CD8 T cells IFN-γ assay; assay type: cell-based; conditions: normalized to 3 μM reference compound with anti-CD3 plus anti-CD28 as 100% activation, read-out: HuCD8 INFG Normalized EC50;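 further: Naïve human CD8 T cells stimulated with plate-bound anti-CD3 and soluble anti-CD28, IFN-γ in supernatant quantified by AlphaLISA and converted to pg/mL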
Human venous whole blood = assay: Human whole blood IFN-γ assay; assay type: cell-based; conditions: normalized to 3 μM reference compound with anti-CD3 plus anti-CD28 as 100% activation;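 further: blood from healthy donors exposed to compound for 1 h before stimulation with anti-CD3 and anti-CD28 at 1 µg/mL each, IFN-γ quantified in supernatant by AlphaLISA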
[2] = Homo sapiens, 24 h, human whole blood, read-out: INFg Whole Blood Normalized Agonist EC50
[3] = Homo sapiens, 24 h, read-out: INFg Whole Blood Normalized Agonist EC50, human whole blood

pIC50 (human DGKα) | pIC50 (human DGKζ) | SMILES | pIC50 ([1]; Mus musculus, MC-38) | pEC50 (naïve human CD8 T cells; Homo sapiens, T-cell, 20 h) | pEC50 (Human venous whole blood; [2]) | pIC50 [1] | pEC50 (naïve human CD8 T cells) | pEC50 (Human venous whole blood; read-out: INFg Whole Blood Normalized Agonist EC50, human whole blood) | pEC50 (Human venous whole blood; [3]) | pEC50 (Human venous whole blood; human whole blood, read-out: INFg Whole Blood Normalized Agonist EC50) | pEC50 (Human venous whole blood; Homo sapiens, human whole blood, read-out: INFg Whole Blood Normalized Agonist EC50)
5.54 | 5.26 | Cn1c(=O)cc(N2CCN(C(c3ccc(F)cc3)c3ccc(F)cc3)C(C#N)C2)c2nc(C#N)ccc21 (single isomer, unassigned) [Example 44, 8-(4-(bis(4-fluorophenyl)methyl)-3-cyanopiperazin-1-yl)-5-methyl-6-oxo-5,6-dihydro-1,5-naphthyridine-2-carbonitrile] | 6.23 | 6.34 | 5.41 |  |  |  |  |  | 
6.22 | 5.82 | C[C@@H]1CN(c2cc(=O)n(C)c3ccc(C#N)nc23)[C@@H](C)CN1Cc1ccc(F)c(F)c1 [Example 291, 8-[(2S,5R)-4-[(3,4-difluorophenyl)methyl]-2,5-dimethylpiperazin-1-yl]-5-methyl-6-oxo-5,6-dihydro-1,5-naphthyridine-2-carbonitrile] | 6.33 | 7.47 | 5.89 |  |  |  |  |  | 
4.29 | 5.57 | C[C@@H]1CN(C(c2ccc(F)cc2)c2ccc(F)cc2)[C@H](C)CN1c1c(Cl)c(=O)n(C)c2ccc(C#N)nc12 [Example 132, 8-((2R,5R)-4-(bis(4-fluorophenyl)methyl)-2,5-dimethylpiperazin-1-yl)-7-chloro-5-methyl-6-oxo-5,6-dihydro-1,5-naphthyridine-2-carbonitrile] | 5.15 | 5.68 | 5.08 |  |  |  |  |  | 
5.15 | 5.55 | Cc1c(N2CCN(C(c3ccc(F)cc3)c3ccc(F)cc3)[C@H](C)C2)c2nc(C#N)ccc2n(C)c1=O [Example 99, (R)-8-(4-(bis(4-fluorophenyl)methyl)-3-methylpiperazin-1-yl)-5,7-dimethyl-6-oxo-5,6-dihydro-1,5-naphthyridine-2-carbonitrile] | 5.92 | 6.77 | 5.55 |  |  |  |  |  | 
 |  | C[C@@H]1CN(c2cc(=O)n(C)c3ccc(C#N)nc23)[C@@H](C)CN1C(c1ccc(F)cc1)c1ccccc1F (single isomer, unassigned) [Example 305] |  |  |  | 7.64 | 7.59 | 6.17 |  |  | 
 |  | C[C@@H]1CN(c2cc(=O)n(C)c3ccc(C#N)nc23)[C@@H](C)CN1C(c1ccc(F)cc1)c1ccccc1F (single isomer, unassigned) [Example 304] |  |  |  | 7.33 | 8.07 |  | 6.31 |  | 
 |  | C[C@@H]1CN(C(c2ccc(F)cc2)c2ccc(F)cc2)[C@@H](C)CN1c1cc(=O)n(C)c2ccc(C#N)nc12 [Example 4, 8-((2R,5S)-4-(bis(4-fluorophenyl)methyl)-2,5-dimethylpiperazin-1-yl)-5-methyl-6-oxo-5,6-dihydro-1,5-naphthyridine-2-carbonitrile] | 6.49 | 6.52 |  |  |  |  | 5.46 |  | 
 | 5.68 | COC(=O)C1CN(c2c(C#N)c(=O)n(C)c3ccc(C#N)nc23)CCN1C(c1ccc(F)cc1)c1ccc(F)cc1 (single isomer, unassigned) [Example 51, methyl 1-(bis(4-fluorophenyl)methyl)-4-(3,6-dicyano-1-methyl-2-oxo-1,2-dihydro-1,5-naphthyridin-4-yl)piperazine-2-carboxylate] |  |  |  | 5.72 | 6.29 |  |  | 5.80 | 
 |  | C[C@@H]1CN(c2cc(=O)n(C)c3ccc(C#N)nc23)[C@@H](C)CN1C(c1ccccc1)c1ccc(F)cc1 (single isomer, unassigned) [Example 183] | 7.48 | 7.41 |  |  |  |  |  |  | 6.15
 |  | C[C@H]1CN(C(c2ccc(F)cc2)c2ccc(F)cc2)[C@@H](C)CN1c1cc(=O)n(C)c2ccc(C#N)nc12 [Example 133, 8-((2S,5S)-4-(bis(4-fluorophenyl)methyl)-2,5-dimethylpiperazin-1-yl)-5-methyl-6-oxo-5,6-dihydro-1,5-naphthyridine-2-carbonitrile] | 5.96 | 6.08 |  |  |  |  | 5.24 |  | 
4.80 | 4.92 | CC1CN(c2cc(=O)n(C)c3ccc(C#N)nc23)CC(C)N1C(c1ccc(F)cc1)c1ccc(F)cc1 (stereo not shown) [Example 163, 8-(4-(bis(4-fluorophenyl)methyl)-3,5-dimethylpiperazin-1-yl)-5-methyl-6-oxo-5,6-dihydro-1,5-naphthyridine-2-carbonitrile] | 5.68 | 5.82 |  |  |  |  |  |  | 
5.62 | 5.92 | COC(=O)[C@@H]1CN(c2cc(=O)n(C)c3ccc(C#N)nc23)CCN1C(c1ccc(F)cc1)c1ccc(F)cc1 [Example 66, Methyl (S)-1-(bis(4-fluorophenyl)methyl)-4-(6-cyano-1-methyl-2-oxo-1,2-dihydro-1,5-naphthyridin-4-yl)piperazine-2-carboxylate] | 7.18 | 6.80 |  |  |  |  |  |  | 
 |  | C[C@@H]1CN(c2c(Cl)c(=O)n(C)c3ccc(C#N)nc23)CCN1C(c1ccc(F)cc1)c1ccc(F)cc1 [Example 29, (R)-8-(4-(bis(4-fluorophenyl)methyl)-3-methylpiperazin-1-yl)-7-chloro-5-methyl-6-oxo-5,6-dihydro-1,5-naphthyridine-2-carbonitrile] | 7.43 | 7.74 |  |  |  |  | 5.89 |  | 
3.62 | 3.96 | Cn1c(=O)cc(N2CCN(C(c3ccc(F)cc3)c3ccc(F)cc3)CC2C(=O)NC2CC2)c2nc(C#N)ccc21 (single isomer, unassigned) [Example 139, 4-(bis(4-fluorophenyl)methyl)-1-(6-cyano-1-methyl-2-oxo-1,2-dihydro-1,5-naphthyridin-4-yl)-N-cyclopropylpiperazine-2-carboxamide] | 5.00 |  |  |  | 4.30 |  |  |  | 
3.70 | 3.92 | Cn1c(=O)c(C#N)c(N2CCN(C(c3ccc(F)cc3)c3ccc(F)cc3)C(C(=O)O)C2)c2nc(C#N)ccc21 (single isomer, unassigned) [Example 54, 1-(bis(4-fluorophenyl)methyl)-4-(3,6-dicyano-1-methyl-2-oxo-1,2-dihydro-1,5-naphthyridin-4-yl)piperazine-2-carboxylic acid] | 5.00 |  |  |  | 5.00 |  |  |  | 
5.29 | 5.18 | Cn1c(=O)c(C#N)c(N2CCN(C(c3ccc(F)cc3)c3ccc(F)cc3)C(CO)C2)c2nc(C#N)ccc21 (single isomer, unassigned) [Example 15, 8-(4-(bis(4-fluorophenyl)methyl)-3-(hydroxymethyl)piperazin-1-yl)-5-methyl-6-oxo-5,6-dihydro-1,5-naphthyridine-2,7-dicarbonitrile] | 6.04 |  |  |  | 5.00 |  |  |  | 
3.62 |  | CC(C)OC(=O)C1CN(c2c(C#N)c(=O)n(C)c3ccc(C#N)nc23)CCN1C(c1ccc(F)cc1)c1ccc(F)cc1 (single isomer, unassigned) [Example 65, Isopropyl 1-(bis(4-fluorophenyl)methyl)-4-(3,6-dicyano-1-methyl-2-oxo-1,2-dihydro-1,5-naphthyridin-4-yl)piperazine-2-carboxylate] |  |  | 4.80 | 5.08 | 5.77 |  |  |  | 
3.62 | 4.14 | Cn1c(=O)c(C#N)c(N2CCN(C(c3ccc(F)cc3)c3ccc(F)cc3)C(C(=O)NC3CC3)C2)c2nc(C#N)ccc21 (single isomer, unassigned) [Example 60, 1-(bis(4-fluorophenyl)methyl)-N-cyclopropyl-4-(3,6-dicyano-1-methyl-2-oxo-1,2-dihydro-1,5-naphthyridin-4-yl)piperazine-2-carboxamide] | 5.00 | 5.00 |  |  |  |  |  |  | 
